What was measured:
[1] = Biodistribution study in LNCaP tumor-bearing mice (Th227 counted in organs); type: in vivo, SCID mice; conditions: 500 kBq/kg; for Th-227 in Blood / Th-227 in Femur bone / Th-227 in Kidneys / Th-227 in Liver / Th-227 in Spleen / Th-227 in Tumor / Th-227 in salivary glands: study b3004
Protocol: (§1) SCID mice were randomly assigned to experimental groups, ten animals per group (efficacy) or n=3-5 per time point of biodistribution study. At the initiation of the study, a testosterone pellet was subcutaneously transplanted, the animals were shaved, tattooed and each cage was labeled with the cage number, study number and number of animals per cage.
(§2) LNCaP human prostate cancer cells were cultured as described according to the supplier's protocols. Cells were harvested for transplantation in a subconfluent (70%) state. Animals were injected with 5×10^6 LNCaP cells suspended in 100% Matrigel subcutaneously into the flank of the mice.
Biodistribution study: When tumors reached a predetermined size in mice of ˜50 mm^2 animals were randomized into groups (n=3 animals/time point) and the radioactive compound was once applied intravenously. The i.v. application volume was 100 μl/mice.
At the predetermined time point, n=3 animals were sacrificed, the organs removed, weight and measured in a Germanium detector to count the Th227 in the sample.

[2] = test system: 22Rv1 cells; assay: Cell proliferation assay (CellTiter-Glo, 5-day exposure), 22Rv1; type: cell-based; conditions: 22Rv1, 1000 cells/well, Th-227 labelled at 375 kBq/nmol, mean of 1 to 6 experiments
Protocol: (§3) Inhibition of cell proliferation of Thorium-227 labeled PMSA SMOL ligands was tested different prostate cancer cell lines, namely 22Rv1, VCaP, C4-2 (all from ATCC, Manassas, Va., USA) and LNCaP (DMSZ, Braunschweig). Cells were seeded using the following conditions in 384 well plates (Corning) in 30 μl of growth media at 4000 cells/well for VCaP cells and 1000 cells/well for 22Rv1, C4-2 and LNCaP cells.
(§4) Cells were cultivated an incubator at 37° C. and 5% C02 over night. […] In sister plates cell viability at treatment start (d=0) was determined using CellTiter-Glo® assay (CTG, Promega, Madison, Wis., USA), by adding 30 μl per well CTG solution, incubation for 10 min and reading of Luminescence in a PheraStarFSX instrument (BMG Labtech). After a 5-day exposure in the presenced of test compounds, cell viability of treated or untreated control cells was determined again using CellTiter-Glo® assay (Promega, Madison, Wis., USA). […] The DRC software is a Biobook Spreadsheet that was developed by Bayer AG and Bayer Business Services on the IDBS E-Workbook Suite platform (IDBS: ID Business Solutions Ltd., Guildford, UK).

[3] = test system: C4-2 cells; assay: Cell proliferation assay (CellTiter-Glo, 5-day exposure), C4-2; type: cell-based; conditions: C4-2, 1000 cells/well, Th-227 labelled at 375 kBq/nmol, mean of 1 to 6 experiments
Protocol: as §3, §4

[4] = test system: VCaP cells; assay: Cell proliferation assay (CellTiter-Glo, 5-day exposure), VCaP; type: cell-based; conditions: 4000 cells/well, Th-227 labelled at 375 kBq/nmol, mean of 1 to 6 experiments
Protocol: as §3, §4

[5] = test system: LNCaP human prostate cancer cells; assay: LNCaP xenograft efficacy study (T/C tumor area); type: in vivo, SCID mice
Protocol: as §1, §2
Efficacy study: When tumors reached a predetermined size in mice of 35-50 mm^2 animals were randomized into treatment and control groups (n=10 animals/group) and treatment with the defined radioactive dose was started. The i.v. application volume was 100 μl/mice.
Tumor response was assessed by determination of the tumor area (product of the longest diameter and its perpendicular) using a caliper. The animal body weight was monitored as a measure for treatment-related toxicity. Measurement of tumor area and body weight was performed two to three times weekly.
Animals were sacrificed when showing signs of toxicity (>20% body weight loss) or when tumors reached a size of approximately 200 mm^2.
Tumor growth inhibition is presented as T/C ratio (Treatment/Control) calculated with tumor areas when the vehicle control group had to be closed.

[6] = comparison of % injected dose per gram tissue
[7] = Example IV, day 36 after start of therapy, once 1 MBq/kg

Cc1cc(C(=O)NCCN(CCCN(CCNC(=O)c2cc(C)n(CC(=O)O)c(=O)c2[O-])CCNC(=O)c2cc(C)n(CC(=O)NCC3CCC(C(=O)NC(Cc4ccc5ccccc5c4)C(=O)NCCCCC(NC(=O)NC(CCC(=O)O)C(=O)O)C(=O)O)CC3)c(=O)c2[O-])CCNC(=O)c2cc(C)n(CC(=O)NCC3CCC(C(=O)NC(Cc4ccc5ccccc5c4)C(=O)NCCCCC(NC(=O)NC(CCC(=O)O)C(=O)O)C(=O)O)CC3)c(=O)c2[O-])c([O-])c(=O)n1CC(=O)O.[227Th+4] (centres unmarked) [1-C dimer-227Th]
Accumulation in the tumor (in words) [1, 6]: much higher accumulation in the tumor | Background in blood, liver and spleen (in words) [1, 6]: lower background compared to 1-F-227Th | Th-227 in Blood ([1]; 1 h): 0.90 % ID Th-227/g organ | Th-227 in Femur bone ([1]; 1 h): 1.39 % ID Th-227/g organ | Th-227 in Kidneys ([1]; 1 h): 120.74 % ID Th-227/g organ | Th-227 in Liver ([1]; 1 h): 1.49 % ID Th-227/g organ | Th-227 in Spleen ([1]; 1 h): 2.33 % ID Th-227/g organ | Th-227 in Tumor ([1]; 1 h): 19.99 % ID Th-227/g organ | Th-227 in salivary glands ([1]; 1 h): 5.02 % ID Th-227/g organ | Th-227 in Blood ([1]; 24 h): 0.07 % ID Th-227/g organ | Th-227 in Femur bone ([1]; 24 h): 1.65 % ID Th-227/g organ | Th-227 in Kidneys ([1]; 24 h): 102.45 % ID Th-227/g organ | Th-227 in Liver ([1]; 24 h): 1.34 % ID Th-227/g organ | Th-227 in Spleen ([1]; 24 h): 1.50 % ID Th-227/g organ | Th-227 in Tumor ([1]; 24 h): 14.49 % ID Th-227/g organ | Th-227 in salivary glands ([1]; 24 h): 1.39 % ID Th-227/g organ | Th-227 in Blood ([1]; 72 h): 0.01 % ID Th-227/g organ | Th-227 in Femur bone ([1]; 72 h): 1.25 % ID Th-227/g organ | Th-227 in Kidneys ([1]; 72 h): 2.10 % ID Th-227/g organ | Th-227 in Liver ([1]; 72 h): 1.02 % ID Th-227/g organ | Th-227 in Spleen ([1]; 72 h): 0.76 % ID Th-227/g organ | Th-227 in Tumor ([1]; 72 h): 8.99 % ID Th-227/g organ | Th-227 in salivary glands ([1]; 72 h): 0.77 % ID Th-227/g organ | Th-227 in Blood ([1]; 168 h): 0.01 % ID Th-227/g organ | Th-227 in Femur bone ([1]; 168 h): 1.76 % ID Th-227/g organ | Th-227 in Kidneys ([1]; 168 h): 17.42 % ID Th-227/g organ | Th-227 in Liver ([1]; 168 h): 1.28 % ID Th-227/g organ | Th-227 in Spleen ([1]; 168 h): 1.24 % ID Th-227/g organ | Th-227 in Tumor ([1]; 168 h): 8.68 % ID Th-227/g organ | Th-227 in salivary glands ([1]; 168 h): 1.17 % ID Th-227/g organ | Th-227 in Blood ([1]; 336 h): 0.00 % ID Th-227/g organ | Th-227 in Femur bone ([1]; 336 h): 1.55 % ID Th-227/g organ | Th-227 in Kidneys ([1]; 336 h): 5.40 % ID Th-227/g organ | Th-227 in Liver ([1]; 336 h): 1.06 % ID Th-227/g organ | Th-227 in Spleen ([1]; 336 h): 0.73 % ID Th-227/g organ | Th-227 in Tumor ([1]; 336 h): 2.85 % ID Th-227/g organ | Th-227 in salivary glands ([1]; 336 h): 1.20 % ID Th-227/g organ | Proliferation assay on cancer cell lines by TTCs Default Pivot #3 IC50 [kBq/mL] 22Rv1 1000cells 375kBq/nmol (mean) [2]: 1.04 kBq/mL | Proliferation assay on cancer cell lines by TTCs Default Pivot #3 IC50 [kBq/mL] C4-2 1000cells 375kBq/nmol (mean) [3]: 1.12 kBq/mL | Proliferation assay on cancer cell lines by TTCs Default Pivot #3 IC50 [kBq/mL] VCap 4000cells 375kBq/nmol (mean) [4]: 1.55 kBq/mL | T/Carea ([5]; Example II, day 33 after start of therapy, 375 kBq/kg weekly for 5 weeks): 0.60 | T/Carea ([5]; Example II, day 33 after start of therapy, 750 kBq/kg weekly for 5 weeks): 0.34 | T/Carea [5, 7]: 0.48

Cc1cc(C(=O)NCCN(CCCN(CCNC(=O)c2cc(C)n(CC(=O)NCC3CCC(C(=O)NC(Cc4cnc5ccccc5c4)C(=O)NCCCCC(NC(=O)NC(CCC(=O)O)C(=O)O)C(=O)O)CC3)c(=O)c2[O-])CCNC(=O)c2cc(C)n(CC(=O)NCC3CCC(C(=O)NC(Cc4cnc5ccccc5c4)C(=O)NCCCCC(NC(=O)NC(CCC(=O)O)C(=O)O)C(=O)O)CC3)c(=O)c2[O-])CCNC(=O)c2cc(C)n(CC(=O)NCC3CCC(C(=O)NC(Cc4cnc5ccccc5c4)C(=O)NCCCCC(NC(=O)NC(CCC(=O)O)C(=O)O)C(=O)O)CC3)c(=O)c2[O-])c([O-])c(=O)n1CC(=O)O.[227Th+4] (centres unmarked) [Example 22-C trimer-227Th]
Proliferation assay on cancer cell lines by TTCs Default Pivot #3 IC50 [kBq/mL] 22Rv1 1000cells 375kBq/nmol (mean) [2]: 0.84 kBq/mL | Proliferation assay on cancer cell lines by TTCs Default Pivot #3 IC50 [kBq/mL] C4-2 1000cells 375kBq/nmol (mean) [3]: 1.82 kBq/mL | Proliferation assay on cancer cell lines by TTCs Default Pivot #3 IC50 [kBq/mL] VCap 4000cells 375kBq/nmol (mean) [4]: 2.62 kBq/mL | T/Carea [5, 7]: 0.64

Reference: patent US20230072421A1, “TARGETED RADIOPHARMACEUTICALS FOR THE DIAGNOSIS AND TREATMENT OF PROSTATE CANCER” (Bayer AS, priority 2019, published 2023)
